Laboratory results: patent US9481676B2, “Azepino[4,5-B]indoles and methods of use” (Medivation Technologies, Inc., priority 2008, dated 2016)

What was measured:
[1] = target: T1, human recombinant serotonin (5-Hydroxytryptamine) 5-HT2A receptor (Homo sapiens, UniProt P28223); experiment: Serotonin 5-HT2A radioligand binding ([3H]Ketanserin); conditions: compound at 1 μM; read-out: Serotonin (1 μM) 5-HT2A, percent inhibition of specific binding
T1 construct: expressed in transfected cells; host or cells: CHO-K1 cells
T1 sequence (P28223 whole entry): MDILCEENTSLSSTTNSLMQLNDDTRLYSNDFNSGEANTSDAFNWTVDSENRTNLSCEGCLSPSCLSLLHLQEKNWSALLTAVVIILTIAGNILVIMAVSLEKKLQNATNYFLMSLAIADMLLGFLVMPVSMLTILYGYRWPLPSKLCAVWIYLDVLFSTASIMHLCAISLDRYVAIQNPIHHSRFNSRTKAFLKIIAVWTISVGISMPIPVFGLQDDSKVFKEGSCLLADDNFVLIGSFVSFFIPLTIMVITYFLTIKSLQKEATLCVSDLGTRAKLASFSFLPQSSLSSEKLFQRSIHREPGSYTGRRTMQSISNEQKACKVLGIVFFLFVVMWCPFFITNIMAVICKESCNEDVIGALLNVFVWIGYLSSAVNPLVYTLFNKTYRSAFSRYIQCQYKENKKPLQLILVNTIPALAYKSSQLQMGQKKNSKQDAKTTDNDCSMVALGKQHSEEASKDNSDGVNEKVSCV
In short: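 Percent inhibition of specific [3H]ketanserin (0.5 nM) binding, filtration read-out, with compounds at ≤1 μM (1% DMSO vehicle). Receptor source: recombinant human 5-HT2A in CHO-K1 cells, 50 mM Tris-HCl pH 7.4, 60 min, 25 °C; 1 μM mianserin gives nonspecific binding.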

[2] = target: T2, human recombinant serotonin (5-Hydroxytryptamine) 5-HT6 receptor (Homo sapiens, UniProt P50406); experiment: Serotonin 5-HT6 radioligand binding ([3H]LSD); conditions: compound at 1 μM; read-out: Serotonin (1 μM) 5-HT6, percent inhibition of specific binding
T2 construct: expressed in transfected cells; host or cells: human HeLa cells
T2 sequence (P50406 whole entry): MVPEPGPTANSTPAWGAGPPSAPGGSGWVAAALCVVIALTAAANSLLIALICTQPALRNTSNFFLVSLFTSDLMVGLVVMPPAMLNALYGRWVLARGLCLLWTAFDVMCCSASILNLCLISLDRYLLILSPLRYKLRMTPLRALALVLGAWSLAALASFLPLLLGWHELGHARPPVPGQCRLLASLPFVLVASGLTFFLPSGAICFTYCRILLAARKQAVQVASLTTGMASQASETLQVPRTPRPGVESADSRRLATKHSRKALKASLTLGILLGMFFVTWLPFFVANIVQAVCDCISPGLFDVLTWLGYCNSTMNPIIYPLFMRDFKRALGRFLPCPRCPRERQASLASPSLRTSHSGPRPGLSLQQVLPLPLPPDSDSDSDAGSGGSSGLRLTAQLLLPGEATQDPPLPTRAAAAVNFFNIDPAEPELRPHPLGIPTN
In short: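 Human recombinant 5-HT6 receptor from HeLa cells incubated with 1.5 nM [3H]LSD for 120 min at 37° C in 50 mM Tris-HCl pH 7.4, 150 mM NaCl, 2 mM ascorbic acid, 0.001% BSA. Nonspecific binding defined with 5 μM serotonin; bound ligand counted after filtration.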

[3] = target: T3, human recombinant adrenergic α2A receptor (Homo sapiens, UniProt P08913); experiment: Adrenergic alpha2A radioligand binding ([3H]MK-912); conditions: compound at 1 μM; read-out: Adrenergic (1 μM) α2A, percent inhibition of specific binding
T3 construct: expressed in transfected cells; host or cells: insect Sf9 cells
T3 sequence (P08913 1-465): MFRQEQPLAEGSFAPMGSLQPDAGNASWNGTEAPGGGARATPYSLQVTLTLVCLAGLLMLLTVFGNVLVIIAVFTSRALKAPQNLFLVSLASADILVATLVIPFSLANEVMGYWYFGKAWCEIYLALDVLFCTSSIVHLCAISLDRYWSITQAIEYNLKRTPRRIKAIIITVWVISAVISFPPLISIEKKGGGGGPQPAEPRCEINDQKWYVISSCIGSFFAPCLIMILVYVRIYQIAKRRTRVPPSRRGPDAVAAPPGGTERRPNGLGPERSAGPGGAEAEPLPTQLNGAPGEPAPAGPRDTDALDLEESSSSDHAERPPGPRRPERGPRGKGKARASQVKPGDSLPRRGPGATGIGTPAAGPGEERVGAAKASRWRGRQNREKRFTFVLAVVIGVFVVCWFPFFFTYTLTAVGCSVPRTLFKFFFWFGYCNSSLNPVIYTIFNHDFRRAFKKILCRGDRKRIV
Description: To evaluate in radioligand binding assays the activity of compounds of the invention, human recombinant adrenergic α2A receptor expressed in insect Sf9 cells (Uhlen S et al. J Pharmacol Exp Ther. 271:1558, 1994) in a modified Tris-HCl buffer (50 mM Tris-HCl, pH 7.4, 12.5 mM MgCl2, 2 mM EDTA) was used. Compounds of invention were incubated with 1 nM [^3H]MK-912 for 60 min. at 25° C. MK912 is (2S-trans)-1,3,4,5′,6,6′,7,12b-octahydro-1′,3′-dimethyl-spiro[2 h-benzofuro [2,3-a]quinolizine-2,4′ (1′H)-pyrimidin]-2′ (3′H)-one hydrochloride Non-specific binding was estimated in the presence of 10 μM WB-4101 (2-(2,6-Dimethoxyphenoxyethyl)aminomethyl-1,4-benzodioxane hydrochloride). Receptor proteins were filtered and washed, the filters were then counted to determine [^3H]MK-912 specifically bound. Compounds were screened at 1 μM or lower, using 1% DMSO as vehicle. Biochemical assay results are presented as the percent inhibition of specific binding in Table 5.

[4] = target: T4, human recombinant adrenergic α1D receptor (Homo sapiens, UniProt P25100); experiment: Adrenergic alpha1D radioligand binding ([3H]Prozosin); conditions: compound at 1 μM; read-out: Adrenergic (1 μM) α1D, percent inhibition of specific binding
T4 construct: expressed in transfected cells; host or cells: HEK-293 cells
T4 sequence (P25100 1-572): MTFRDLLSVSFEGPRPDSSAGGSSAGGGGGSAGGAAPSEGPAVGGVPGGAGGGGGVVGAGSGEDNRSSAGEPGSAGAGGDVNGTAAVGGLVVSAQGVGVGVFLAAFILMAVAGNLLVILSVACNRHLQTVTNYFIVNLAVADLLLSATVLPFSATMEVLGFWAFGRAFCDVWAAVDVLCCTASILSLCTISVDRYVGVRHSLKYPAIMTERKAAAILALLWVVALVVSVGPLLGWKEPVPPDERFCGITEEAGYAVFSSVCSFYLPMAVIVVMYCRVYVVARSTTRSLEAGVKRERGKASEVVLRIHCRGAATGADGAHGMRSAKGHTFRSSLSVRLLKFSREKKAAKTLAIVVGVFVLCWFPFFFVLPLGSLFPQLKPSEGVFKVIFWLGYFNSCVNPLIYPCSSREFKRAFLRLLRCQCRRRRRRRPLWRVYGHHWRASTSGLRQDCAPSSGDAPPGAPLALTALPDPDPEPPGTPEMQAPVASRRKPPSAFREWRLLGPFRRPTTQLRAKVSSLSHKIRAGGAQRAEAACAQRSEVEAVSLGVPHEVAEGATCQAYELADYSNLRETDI
Description: To evaluate in radioligand binding assays the activity of compounds of the invention, human recombinant adrenergic α1D receptor expressed in human embryonic kidney (HEK-293) cells (Kenny, B. A. et al. Br. J. Pharmacol. 115(6):981, 1995) in a 50 mM Tris-HCl buffer, pH 7.4, was used. Compounds of invention were incubated with 0.6 nM [^3H]Prozosin for 60 min. at 25° C. Non-specific binding was estimated in the presence of 10 μM phentolamine. Receptor proteins were filtered and washed, the filters were then counted to determine [^3H]Prozosin specifically bound. Compounds were screened at 1 μM or lower, using 1% DMSO as vehicle. Biochemical assay results are presented as the percent inhibition of specific binding in Table 5.

**Q.** Which results are given for `Cc1ccc2c(c1)c1c(n2CCc2cncc(Cl)c2)CCN(C)CC1` [Compound No. 4, 6-(2-(5-chloropyridin-3-yl)ethyl)-1,2,3,4,5,6-hexahydro-3,9-dimethylazepino[4,5-b]indole]?
**A.** inhibition at 1 µM [1]: 93%; inhibition at 1 µM [2]: 83%; inhibition at 1 µM [3]: 85%; inhibition at 1 µM [4]: 76%

**Q.** Which results are given for `CN1CCc2c(n(CCc3ccncc3)c3ccc(Cl)cc23)CC1` [Compound No. 5, 9-chloro-1,2,3,4,5,6-hexahydro-3-methyl-6-(2-(pyridin-4-yl)ethyl)azepino[4,5-b]indole]?
**A.** inhibition at 1 µM [1]: 96%; inhibition at 1 µM [2]: 93%; inhibition at 1 µM [3]: 97%; inhibition at 1 µM [4]: 88%

**Q.** Which inhibition at 1 µM [1] does the source give for `Cc1ccc2c(c1)c1c(n2CCc2ccncc2)CCN(C)CC1` [Compound No. 6, 1,2,3,4,5,6-hexahydro-3,9-dimethyl-6-(2-(pyridin-4-yl)ethyl)azepino[4,5-b]indole] here?
**A.** 96%

**Q.** What about the inhibition at 1 µM [2] of the same molecule?
**A.** 82%

**Q.** And the inhibition at 1 µM [3]?
**A.** 93%

**Q.** And the inhibition at 1 µM [4]?
**A.** 92%

**Q.** Which inhibition at 1 µM [1] does the source give for `Cc1ccc(C(O)Cn2c3c(c4cc(Cl)ccc42)CCN(C)CC3)cn1` (centres unmarked) [Compound No. 7, 2-(9-chloro-2,3,4,5-tetrahydro-3-methylazepino[4,5-b]indol-6(1H)-yl)-1-(6-methylpyridin-3-yl)ethanol] here?
**A.** 80%

**Q.** And the inhibition at 1 µM [2]?
**A.** 36%

**Q.** And the inhibition at 1 µM [3]?
**A.** 84%

**Q.** What about the inhibition at 1 µM [4] of the same molecule?
**A.** 69%

**Q.** `CN1CCc2c(n(CCc3ccccn3)c3ccc(Cl)cc23)CC1` [Compound No. 8, 9-chloro-1,2,3,4,5,6-hexahydro-3-methyl-6-(2-(pyridin-2-yl)ethyl)azepino[4,5-b]indole] was tested. Which inhibition at 1 µM [1] did it give?
**A.** 97%

**Q.** What about the inhibition at 1 µM [2] of the same molecule?
**A.** 100%

**Q.** And the inhibition at 1 µM [3]?
**A.** 95%

**Q.** What about the inhibition at 1 µM [4] of the same molecule?
**A.** 91%

**Q.** What does the source list for `Cc1ccc2c(c1)c1c(n2CCc2ccccn2)CCN(C)CC1` [Compound No. 9, 1,2,3,4,5,6-hexahydro-3,9-dimethyl-6-(2-(pyridin-2-yl)ethyl)azepino[4,5-b]indole]?
**A.** inhibition at 1 µM [1]: 96%; inhibition at 1 µM [2]: 81%; inhibition at 1 µM [3]: 88%; inhibition at 1 µM [4]: 80%

**Q.** What does the source list for `CN1CCc2c(n(CCc3cncc(Cl)c3)c3ccc(Cl)cc23)CC1` [Compound No. 10, 9-chloro-6-(2-(5-chloropyridin-3-yl)ethyl)-1,2,3,4,5,6-hexahydro-3-methylazepino[4,5-b]indole]?
**A.** inhibition at 1 µM [1]: 94%; inhibition at 1 µM [2]: 97%; inhibition at 1 µM [3]: 96%; inhibition at 1 µM [4]: 89%

**Q.** What does the source list for `Cc1ccc2c(c1)c1c(n2CCc2ccc(C(=O)O)nc2)CCN(C)CC1` [Compound No. 11, 5-(2-(2,3,4,5-tetrahydro-3,9-dimethylazepino[4,5-b]indol-6(1H)-yl)ethyl)pyridine-2-carboxylic acid]?
**A.** inhibition at 1 µM [1]: 5%; inhibition at 1 µM [2]: 4%; inhibition at 1 µM [3]: 1%; inhibition at 1 µM [4]: 7%

**Q.** How did the inhibition at 1 µM [1] turn out when `CN1CCc2c(n(CC(C)(O)c3ccc(Cl)cc3)c3ccc(Cl)cc23)CC1` (centres unmarked) [Compound No. 12, 1-(9-chloro-2,3,4,5-tetrahydro-3-methylazepino[4,5-b]indol-6(1H)-yl)-2-(4-chlorophenyl)propan-2-ol] was run?
**A.** 100%

**Q.** And the inhibition at 1 µM [2]?
**A.** 83%

**Q.** What about the inhibition at 1 µM [3] of the same molecule?
**A.** 101%

**Q.** What about the inhibition at 1 µM [4] of the same molecule?
**A.** 68%

**Q.** For `CN1CCc2c(n(CC(C)(O)c3ccc(F)cc3)c3ccc(Cl)cc23)CC1` (centres unmarked) [Compound No. 13, 1-(9-chloro-2,3,4,5-tetrahydro-3-methylazepino[4,5-b]indol-6(1H)-yl)-2-(4-fluorophenyl)propan-2-ol], which inhibition at 1 µM [1] is on record?
**A.** 97%

**Q.** And the inhibition at 1 µM [2]?
**A.** 100%

**Q.** And the inhibition at 1 µM [3]?
**A.** 94%

**Q.** What about the inhibition at 1 µM [4] of the same molecule?
**A.** 76%

**Q.** For `Cc1ccc2c(c1)c1c(n2CC(C)(O)c2ccc(F)cc2)CCN(C)CC1` (centres unmarked) [Compound No. 14, 2-(4-fluorophenyl)-1-(2,3,4,5-tetrahydro-3,9-dimethylazepino[4,5-b]indol-6(1H)-yl)propan-2-ol], which inhibition at 1 µM [1] is on record?
**A.** 101%

**Q.** And the inhibition at 1 µM [2]?
**A.** 93%

**Q.** And the inhibition at 1 µM [3]?
**A.** 90%

**Q.** What about the inhibition at 1 µM [4] of the same molecule?
**A.** 75%

**Q.** Which inhibition at 1 µM [1] does the source give for `Cc1ccc2c(c1)c1c(n2CC(C)(O)c2ccc(Cl)cc2)CCN(C)CC1` (centres unmarked) [Compound No. 15, 2-(4-chlorophenyl)-1-(2,3,4,5-tetrahydro-3,9-dimethylazepino[4,5-b]indol-6(1H)-yl)propan-2-ol] here?
**A.** 101%

**Q.** And the inhibition at 1 µM [2]?
**A.** 82%

**Q.** And the inhibition at 1 µM [3]?
**A.** 93%

**Q.** What about the inhibition at 1 µM [4] of the same molecule?
**A.** 72%

**Q.** `CN1CCc2c(n(CC(O)c3ccc(Cl)cc3)c3ccc(Cl)cc23)CC1` (centres unmarked) [Compound No. 16, 2-(9-chloro-2,3,4,5-tetrahydro-3-methylazepino[4,5-b]indol-6(1H)-yl)-1-(4-chlorophenyl)ethanol] was tested. Which inhibition at 1 µM [1] did it give?
**A.** 101%

**Q.** What about the inhibition at 1 µM [2] of the same molecule?
**A.** 78%

**Q.** And the inhibition at 1 µM [3]?
**A.** 105%

**Q.** And the inhibition at 1 µM [4]?
**A.** 85%

**Q.** With `Cc1ccc2c(c1)c1c(n2CC(O)c2ccc(Cl)cc2)CCN(C)CC1` (centres unmarked) [Compound No. 17, 1-(4-chlorophenyl)-2-(2,3,4,5-tetrahydro-3,9-dimethylazepino[4,5-b]indol-6(1H)-yl)ethanol] as the molecule, how does the inhibition at 1 µM [1] read?
**A.** 102%

**Q.** And the inhibition at 1 µM [2]?
**A.** 80%

**Q.** What about the inhibition at 1 µM [3] of the same molecule?
**A.** 105%

**Q.** What about the inhibition at 1 µM [4] of the same molecule?
**A.** 95%

**Q.** For `CN1CCc2c(n(CC(O)c3cccnc3)c3ccc(Cl)cc23)CC1` (centres unmarked) [Compound No. 18, 2-(9-chloro-2,3,4,5-tetrahydro-3-methylazepino[4,5-b]indol-6(1H)-yl)-1-(pyridin-3-yl)ethanol], which inhibition at 1 µM [1] is on record?
**A.** 88%

**Q.** What about the inhibition at 1 µM [2] of the same molecule?
**A.** 60%

**Q.** And the inhibition at 1 µM [3]?
**A.** 92%

**Q.** What about the inhibition at 1 µM [4] of the same molecule?
**A.** 58%

**Q.** For `Cc1ccc2c(c1)c1c(n2CC(O)c2cccnc2)CCN(C)CC1` (centres unmarked) [Compound No. 19, 2-(2,3,4,5-tetrahydro-3,9-dimethylazepino[4,5-b]indol-6(1H)-yl)-1-(pyridin-3-yl)ethanol], which inhibition at 1 µM [1] is on record?
**A.** 80%

**Q.** And the inhibition at 1 µM [2]?
**A.** 42%

**Q.** What about the inhibition at 1 µM [3] of the same molecule?
**A.** 69%

**Q.** What about the inhibition at 1 µM [4] of the same molecule?
**A.** 54%

**Q.** Which inhibition at 1 µM [1] does the source give for `Cc1ccc2c(c1)c1c(n2CCc2ccc(C(F)(F)F)nc2)CCN(C)CC1` [Compound No. 20, 6-(2-(6-(trifluoromethyl)pyridin-3-yl)ethyl)-1,2,3,4,5,6-hexahydro-3,9-dimethylazepino[4,5-b]indole] here?
**A.** 95%

**Q.** What about the inhibition at 1 µM [2] of the same molecule?
**A.** 46%

**Q.** And the inhibition at 1 µM [3]?
**A.** 68%

**Q.** And the inhibition at 1 µM [4]?
**A.** 91%
